In brackets after ≈: the same amount, converted by molar mass. Where two headings read alike, the source gives them in different places. Non-standard residues stand in square brackets, D forms with d. Residues, ends and D or L forms follow the SMILES beside them. Bip = N[C@@H](Cc1ccc(-c2ccccc2)cc1)C(=O)O
Assays:
[1] = tested on: E. coli K12; type: cell-based, Escherichia coli; conditions: K12
Procedure: (§1) The bacterial strains used here included Gram-positive bacteria Staphylococcus aureus USA300 LAC, Staphylococcus epidermidis 1457, Bacillus subtilis 168, and Gram-negative Escherichia coli K12. Clinical strains of S. aureus, including Mu50, UAMS-1 and Newman, were also evaluated.
(§2) The antimicrobial activity of peptides was evaluated using a standard broth microdilution protocol (Wang, G. (2008) J. Biol. Chem., 283:32637-32643). In brief, exponential phase bacteria at 10^6 CFU were incubated with serially diluted peptides overnight for ˜20 hours at 37° C. The plates were read on a ChroMate® 4300 Microplate Reader at 630 nm (GMI, Ramsey, Minn.). […] In addition, the effects of human serum (up to 10%), pH (6.8, 7.4 and 8.0) and 150 mM sodium chloride (NaCl) on MICs against S. aureus USA300 were also evaluated (Mishra et al. (2015) RSC Advances 5:59758-59769).

[2] = tested on: S. aureus USA300; type: cell-based, Staphylococcus aureus
Procedure: as §1, §2

[3] = tested on: S. aureus Newman; type: cell-based, Staphylococcus aureus
Procedure: as §1, §2

[4] = tested on: S. aureus Mu50; type: cell-based, Staphylococcus aureus
Procedure: as §1, §2

[5] = tested on: S. aureus UAMS-1; type: cell-based, Staphylococcus aureus
Procedure: as §1, §2

[6] = tested on: S. aureus USA300; type: cell-based, Staphylococcus aureus; conditions: USA300
Procedure: The minimal bactericidal concentration (MBC) was determined by plating 50 μl of the content in the clear wells of the above MIC assays. MBC was determined on the petri dishes without bacterial colony formation after overnight growth (Wang et al. (2012) Biochemistry 51:653-664).

[7] = tested on: Candida albicans ATCC 10231; type: cell-based; conditions: ATCC 10231, 48 h
Procedure: (§3) Fungal strains used in this study include Candida albicans ATCC 10231, C. glabrata ATCC 2001 and C. tropicalis ATCC 13803. The fungi were grown in Remel Dex broth (Thermo Fisher Scientific, KS). Antifungal assays were conducted essentially as described for antibacterial assays above, except for a higher starting density at an OD600 0.02 and a longer incubation time of ˜48 hours prior to microplate reading (Mishra et al. (2015) RSC Advances 5:59758-59769).

[8] = MTS cytotoxicity assay; type: cell-based; conditions: human
Procedure: (§4) HeLa CCL-2 epithelial adenocarcinoma cells from American Type Culture Collection (ATCC) were maintained in DMEM high glucose media with 4 mM L-glutamine (NyClone) and 100 U/mL penicillin, 100 μg/mL streptomycin (pen/strep) (Life Technologies), and 10% (v/v) inactivated fetal bovine serum (FBS) (NyClone). Cells were grown in 5% CO2 at 37° C. and were detached from the culturing dish at 80% confluency using 0.025% trypsin-EDTA (NyClone) treatment. Peptide influence on the cell viability was estimated by using the MTS assay according to the manufacturer's protocol (MTS, CellTiter96® AQ One Solution Cell Proliferation Assay, Promega) with minor modifications and as described elsewhere (Mishra et al. (2015) RSC Advances 5:59758-59769). In short, cells were cultured in flat bottomed 96 well microtiter plates (Corning Life Science) at a seeding density of 20,000 cells/well. At confluence ˜100% achieved after 20-24 hours of cultivation, the cells were washed twice with 100 μL Dulbecco's Phosphate Buffered Saline (Life Technologies). Further, 90 μL of DMEM media with 10% FBS, pen/step was added before exposure to 10 μL of the peptide solution in the concentration range 12.5-100 μM. Plates were incubated at 37° C. After 1 hour, 10 μL MTS, CellTiter96® was added. Plates were further incubated for another 2 hours at 37° C. and finally, the absorbance was measured on ChroMate® reader (Awareness Technology) at 492 nm. Culture medium and 0.2% SDS were used as negative and positive controls, respectively.
Human skin HaCaT (immortalized keratinocyte from AddexBio, T0020001) and kidney HEK293 cells were also cultivated for cytotoxicity evaluation of the peptides in a similar manner.

[9] = tested on: S. epidermidis 1457; type: cell-based, Staphylococcus epidermidis
Procedure: as §1, §2

[10] = Hemolytic assay; type: cell-based; conditions: red blood cells, hemolysis
Procedure: Hemolytic analysis of selected peptides was performed using an established protocol (Mishra et al. (2015) RSC Advances 5:59758-59769). Briefly, human blood cells (UNMC Blood Bank) were washed three times with phosphate buffer saline (PBS) and diluted to a 2% solution. After peptide treatment, incubation at 37° C. for one hour, and centrifugation at 13,000 rpm, aliquots of the supernatant were transferred to a fresh 96-well microplate. To assess peptide cytotoxicity, the amount of hemoglobin released was measured at 545 nm. The percent lysis was calculated by assuming 100% release when human blood cells were treated with 1% TRITON™ X-100, and 0% release when incubated with PBS buffer. The hemolytic assays using chicken, bovine, and porcine blood cells (Lampire Biological Laboratories, Inc.) were performed in the same manner.

[11] = tested on: C. glabrata ATCC 2001; type: cell-based, Candida glabrata; conditions: ATCC 2001, 48 h
Procedure: as §3

[12] = MTS cytotoxicity assay; type: cell-based; conditions: human, HeLa CCL-2 cells
Procedure: as §4

[13] = tested on: C. tropicalis ATCC 13803; type: cell-based, Candida tropicalis; conditions: ATCC 13803, 48 h
Procedure: as §3

[14] = tested on: B. subtilis 168; type: cell-based, Bacillus subtilis
Procedure: as §1, §2

[15] = tested on: A. baumannii B2367-12; type: cell-based, Acinetobacter baumannii
Procedure: (§5) Bacterial strains used in this study included Enterococcus faecium ATCC51559, Staphylococcus aureus USA300 LAC, Klebsiella pneumoniae ATCC 13883, Acinetobacter baumannii B2367-12, Pseudomonas aeruginosa PAO1, Enterobacter cloacae B2366-12 and Escherichia coli ATCC 25922, wherein the first six constituting the ESKAPE pathogens. Tryptic soy broth (TSB) for bacterial growth was obtained from BD Bioscience (Sparks, Md.).
(§6) The antibacterial activity of peptides was evaluated using a standard broth microdilution protocol as described (Wang et al. (2012) Antimicrob. Agents Chemother., 56:845-856). In brief, 5 μl of each bacterium (stored at −80° C.) were inoculated into TSB medium (2 ml) and grown overnight. A second inoculation was made in the morning by delivering 10 μl of the overnight culture to a fresh TSB medium. After 2-3 hours growth at 37° C., 225 rpm, logarithmic phase bacterial cultures (OD600≈0.5) were diluted and partitioned into a 96-well polystyrene microplate with ˜10^5 colony forming units (CFU) per well (90 μl aliquots). After treatment with 10 μl of peptide solutions at various concentrations, microplates were incubated at 37° C. overnight and read on a ChroMate® 4300 Microplate Reader at 630 nm (GMI, Ramsey, Minn.). The medium was used as a blank where no bacteria should grow.

[16] = tested on: E. coli ATCC 25922; type: cell-based, Escherichia coli
Procedure: as §5, §6

[17] = tested on: S. aureus USA300 LAC; type: cell-based, Staphylococcus aureus
Procedure: as §5, §6

[18] = tested on: E. faecium ATCC51559; type: cell-based, Enterococcus faecium
Procedure: as §5, §6

[19] = tested on: E. cloacae B2366-12; type: cell-based, Enterobacter cloacae
Procedure: as §5, §6

[20] = tested on: P. aeruginosa PAO1; type: cell-based, Pseudomonas aeruginosa
Procedure: as §5, §6

## CC[C@H](C)[C@H](NC(=O)[C@H](CCCNC(=N)N)NC(=O)[C@H](CCCCN)NC(=O)[C@H](CC(C)C)NC(=O)[C@H](Cc1c[nH]c2ccccc12)NC(=O)[C@H](Cc1c[nH]c2ccccc12)NC(=O)[C@@H](N)Cc1c[nH]c2ccccc12)C(=O)N[C@@H](Cc1c[nH]c2ccccc12)C(N)=O [TetraF2W-KR, WWWLKRIW] (H-WWWLKRIW-NH2; N-terminus and C-terminus assumed)
[1]
  MIC E. coli K12: 12.5 to 25 µM
[2]; S. aureus USA300
  change in MIC on drop of pH from 8 to 6.8: two-fold
[2]; USA300
  Antimicrobial activity (MIC) 150 mM NaCl: 3.1 µM
  Antimicrobial activity (MIC) USA300: 3.1 µM
  MIC S. aureus USA300: 3.1 µM (≈ 3.94 µg/mL)
[2]; USA300, pH 6.8
  Antimicrobial activity (MIC) pH 6.8: 6.2 μM
[2]; USA300, pH 7.4
  Antimicrobial activity (MIC) Normal medium (pH 7.4): 3.1 μM
[2]; USA300, pH 8
  Antimicrobial activity (MIC) pH 8: 3.1 μM
[3]
  Antimicrobial activity (MIC) Newman: 3.1 to 6.2 µM
[4]
  Antimicrobial activity (MIC) Mu50: 6.2 µM
[5]
  Antimicrobial activity (MIC) UAMS-1: 6.2 µM
[6]
  MBC S. aureus USA300: 12.5 µM (≈ 15.9 µg/mL)
[7]
  MIC Candida albicans: 12.5 µM (≈ 15.9 µg/mL)
[8]; HEK293 cells
  CC50 at 1 hour: 55 µM
[8]; HaCaT cells
  CC50 at 1 hour: 60 µM
[9]
  MIC S. epidermidis 1457: 12.5 µM (≈ 15.9 µg/mL)
[10]; chicken, read-out: LC50 Chicken RBCs
  CC50 at 1 hour: 35 µM
[10]; human, read-out: LC50 Human RBCs
  CC50 at 1 hour: 30 µM
[10]; pig, read-out: LC50 Porcine RBCs
  CC50 at 1 hour: 50 µM
[11]
  MIC Candida glabrata: 12.5 µM (≈ 15.9 µg/mL)
[12]
  CC50 at 1 hour: 100 µM
[13]
  MIC Candida tropicalis: 3.1 to 6.2 µM
[14]
  MIC B. subtilis 168: 6.2 µM (≈ 7.89 µg/mL)

## CC(C)C[C@H](NC(=O)[C@H](CC(N)=O)NC(=O)[C@H](CCCNC(=N)N)NC(=O)[C@@H](CC(C)C)NC(=O)[C@H](Cc1ccc(-c2ccccc2)cc1)NC(=O)[C@H](CC(=O)O)NC(=O)[C@H](CCCCN)NC(=O)[C@@H](CC(C)C)NC(=O)[C@H](CCCNC(=N)N)NC(=O)[C@H](CCC(N)=O)NC(=O)[C@@H](NC(=O)[C@@H](CC(C)C)NC(=O)[C@H](CCCNC(=N)N)NC(=O)[C@H](CCCCN)NC(=O)[C@H](Cc1ccc(-c2ccccc2)cc1)NC(=O)CN)C(C)C)C(=O)N[C@H](C(N)=O)C(C)C [Merecidin, reference compound] (H-G[Bip]KR[dL]VQR[dL]KD[Bip][dL]RNLV-NH2; N-terminus and C-terminus assumed)
[15]; B2367-12
  MIC AB: 3.1 ± 0 µM (≈ 6.99 µg/mL)
[16]; ATCC 25922
  MIC EC: 3.1 ± 0 µM (≈ 6.99 µg/mL)
[17]; USA300
  MIC SA: 3.1 ± 0 µM (≈ 6.99 µg/mL)
[18]; ATCC51559
  MIC EF: ≤3.1 µM
[19]; B2366-12
  MIC ECl: 6.25 ± 0 µM (≈ 14.1 µg/mL)
[20]; PAO1
  MIC PA: 6.25 ± 0 µM (≈ 14.1 µg/mL)

## CC[C@H](C)[C@H](NC(=O)[C@H](CCCNC(=N)N)NC(=O)[C@H](CCC(N)=O)NC(=O)[C@@H](NC(=O)[C@@H](NC(=O)[C@H](CCCNC(=N)N)NC(=O)[C@H](CCCCN)NC(=O)[C@H](Cc1ccccc1)NC(=O)[C@@H](N)CS)[C@@H](C)CC)C(C)C)C(=O)N[C@@H](CCCCN)C(=O)N[C@@H](CC(=O)O)C(=O)N[C@@H](Cc1ccccc1)C(=O)N[C@@H](CC(C)C)C(=O)N[C@@H](CCCNC(=N)N)C(=O)N[C@@H](CC(N)=O)C(=O)N[C@@H](CC(C)C)C(=O)N[C@H](C(N)=O)C(C)C [CysFK-16] (H-CFKRIVQRIKDFLRNLV-NH2; N-terminus and C-terminus assumed)
[15]
  MIC AB: 25 µM (≈ 53.7 µg/mL)
[16]
  MIC EC: > 50 µM
[17]
  MIC SA: 18 µM (≈ 38.7 µg/mL)
[18]
  MIC EF: 6.25 µM (≈ 13.4 µg/mL)
[19]
  MIC ECl: > 50 µM
[20]
  MIC PA: > 50 µM

— patent publication US20190048052A1, “ANTI-MICROBIAL PEPTIDES AND COATINGS” (Board of Regents of the University of Nebraska, priority 2016, published 2019)
